Experiments:
[1] = test system: Freund's Complete Adjuvant induced inflammation / mechanical allodynia; assay: Tactile allodynia produced by intraplantar Freund's Complete Adjuvant in rats (Randall-Selitto); format: in vivo, rat; details: CFA model, 24 hours after CFA
Protocol: Animals were acclimated to the vivarium for at least 48 hr prior to behavioral testing. Inflammation was induced with the administration of an intraplantar (subcutaneous injection into the plantar surface of the hind paw, i.pl.) injection of 0.10 ml Freund's Complete Adjuvant (FCA). The experiments were conducted 24 hours after CFA administration. Rats are tested for mechanical allodynia in a Randall-Selitto apparatus. The inflamed paw is put on a pedestal and a pointed force of increasing intensity (0 to 250 grams) is applied to the paw. When the animal struggles to withdraw from the force the test is stopped and the force to induce that struggle is recorded. Data is presented as mean grams of force to withdrawal or a percentage of the maximum possible effect.

[2] = test system: STZ-induced diabetic neuropathy; assay: Tactile allodynia and thermal hyperalgesia in streptozotocin-induced (STZ) diabetic neuropathy model; format: in vivo, Sprague Dawley rats; details: for Active Doses in STZ Diabetic Neuropathy Model (mg/kg, po) (p < 0.05 compared to STZ + VEH treated mice) MECHANICAL: mechanical allodynia, manual von Frey; for Active Doses in STZ Diabetic Neuropathy Model (mg/kg, po) (p < 0.05 compared to STZ + VEH treated mice) THERMAL: thermal hyperalgesia, paw withdrawal latency
Protocol: A cohort of 48 male Sprague Dawley rats, weighing 225-250 g at arrival, was group housed under constant temperature, humidity and a 12-hour light-dark cycle. Following acclimation to the animal colony, the animals were tested for baseline withdrawal responses to mechanical allodynia and thermal hyperalgesia using the methods described below in Chaplan, S. R., Bach, […]., Chung, J. M. and Yaksh, T. L. Quantitative assessment of tactile allodynia in the rat paw. J. Neurosci. Methods 53: 55-63, 1994; Joris, J. L., Dubner, R. and Hargreaves, K. M. Opioid analgesia at Peripheral Sites: a Target for Opioids Released during Stress and Inflammation? Anesthesia and Analgesia 66(12), 1277-81, 1987; and Morrow, T. J. Animal Models of Painful Diabetic Neuropathy: The STZ rat model. Current Protocols in Neuroscience, November; Chapter 9, Unit 9.18, 2004.. […] Two days later (on Day 3), hyperglycermia was confirmed by existence of blood glucose >350 mg/dL as measured by glucometer, and the animal health was monitored biweekly for 12 days. For measures of mechanical allodynia, rats were preselected for experimentation only if the pain threshold 7-14 days after STZ injection (pre-treatment) was reduced by 10 grams of force relative to the response of the individual paw before STZ challenge (pre-induction), namely, with clear presence of allodynia. The rats were randomized based on pre-dose mechanical allodynia scores to balanced treatment groups. The animals were tested prior to study inclusion for mechanical allodynia by the manual von Frey test on Day 20 (Chaplan up/down method using von Frey filaments on the plantar surface of the paw). The manual von Frey test was repeated at 0.5 or 1 hr following administrations of test articles, vehicle, and reference compound via the specified route(s) and on Day 21 post-surgery. […] The rats were randomized based on pre-dose thermal hyperalgesia scores to balanced treatment groups. Rats were preselected (with clear presence of thermal hyperalgesia) on Day 20. Thermal hyperalgesia was measured at 1 or 1.5 hr after dosing of test articles, vehicle, and reference compound via the specified route(s) on Day 21. Each rat was placed within a plastic box atop a glass floor for 20 to 30 minutes. A light beam under the floor was aimed at the plantar surface of the left hind paw. The time was measured automatically when the paw was withdrawn away from the thermal stimulus. A cut-off latency of 23 sec was imposed. The latency to withdrawal was obtained for each rat and defined as the heat pain threshold. Mean thresholds and withdrawal latencies were analyzed via Two Way ANOVA followed by Dunnett's Multiple Comparison tests to STZ+VEH group with differences considered significant at p<0.05.

[3] = test system: oxaliplatin induced peripheral neuropathy; assay: Reversal of allodynia induced by oxaliplatin in mice (von Frey frequency method); format: in vivo, c57bl/6 mice; details: tested 30 min after dosing
Protocol: Compounds were tested for efficacy in mouse models of chemotherapy induced peripheral neuropathy. […] For these studies […]/6 mice are habituated to the test environment and baseline measurements of pain sensitivity are assessed. To determine mechanical responses, the threshold for responses to punctate mechanical stimuli (mechanical hyperalgesia) was tested according to the frequency method. In brief, the plantar surface of the animal hindpaw was stimulated with a single von Frey monofilament (0.4 g) for approximately 1-2 seconds. If there was a withdrawal response, it was recorded as a positive response. A response was defined as a lifting or shaking of the paw upon stimulation. This was repeated ten times for each mouse. The final measurement for each mouse is the % non-response to stimulation for the ten trials. The % non-response to stimulation is converted to a % MPE. For paclitaxel induced peripheral neuropathy, a series of injections of PAC (6 mg/kg, i.p.) on days 1, 3, 5 and 7 is used to induce peripheral neuropathy. After approximately 14 days from the initiation of PAC injections, animals are re-assessed for mechanical sensitivity. […] On test day animals are dosed with compounds either subcutaneously or orally and tested for mechanical response by the frequency method either 30 min (s.c.) or 60 min (p.o.) after drug administration. Data is presented as a % MPE. For oxaliplatin induced peripheral neuropathy, a series of injections of OXA (4 mg/kg, i.p.) on days 1-5 is used to induce peripheral neuropathy. After approximately 14 days from the initiation of PAC injections, animals are re-assessed for mechanical sensitivity. […] On test day animals are dosed with compounds subcutaneously and tested for mechanical response by the frequency method 30 min after drug administration. Data is presented as a % MPE. One or more of the compounds show reversal of chemotherapeutic induced peripheral neuropathy.

COc1ccc(-c2noc(-c3ccc4c(c3)nnn4CC(C)(C)O)n2)c(C)c1 [Compound 26, 1-{5-[3-(4-methoxy-2-methylphenyl)-1,2,4-oxadiazol-5-yl]-1H-1,2,3-benzotriazol-1-yl}-2-methylpropan-2-ol]
Active Doses, mg/kg sc (>50% MPE) [1]: ≥0.1 mg/kg

CCC1(CC)CC(=O)c2cc(-c3nc(-c4cccnc4)no3)ccc2O1 [Compound 103, 2,2-diethyl-6-[3-(pyridin-3-yl)-1,2,4-oxadiazol-5-yl]-3,4-dihydro-2H-1-benzopyran-4-one]
Active Doses in STZ Diabetic Neuropathy Model (mg/kg, po) (p < 0.05 compared to STZ + VEH treated mice) MECHANICAL [2]: <100 mg/kg | Active Doses in STZ Diabetic Neuropathy Model (mg/kg, po) (p < 0.05 compared to STZ + VEH treated mice) THERMAL [2]: <100 mg/kg | Active Doses, mg/kg sc (>50% MPE) [1]: ≥0.03 mg/kg

CCC1(CC)CC(=O)c2cc(-c3nc(-c4ccncc4OC)no3)ccc2O1 [Compound 212, 2,2-diethyl-6-(3-(3-methoxypyridin-4-yl)-1,2,4-oxadiazol-5-yl)chroman-4-one]
Active Doses, mg/kg sc (>50% MPE) [1]: ≥0.1 mg/kg

COc1ccccc1-c1nc(-c2ccc3c(c2)nnn3C(C)C)no1 [Compound 287, 3-(1-isopropyl-1H-benzo[d][1,2,3]triazol-5-yl)-5-(2-methoxyphenyl)-1,2,4-oxadiazole]
Screen @ 3 mg/kg sc (% MPE) [3]: >50 % MPE

Cc1ccccc1-c1noc(-c2ccc3c(c2)nnn3C(C)C)n1 [Compound 293, 5-[3-(2-methylphenyl)-1,2,4-oxadiazol-5-yl]-1-(propan-2-yl)-1H-1,2,3-benzotriazole]
Active Doses in STZ Diabetic Neuropathy Model (mg/kg, po) (p < 0.05 compared to STZ + VEH treated mice) MECHANICAL [2]: <100 mg/kg | Active Doses in STZ Diabetic Neuropathy Model (mg/kg, po) (p < 0.05 compared to STZ + VEH treated mice) THERMAL [2]: <100 mg/kg | Active Doses, mg/kg sc (>50% MPE) [1]: ≥0.1 mg/kg

CCC1(CC)CC(=O)c2cc(-c3nc(-c4cn[nH]c4)no3)ccc2O1 [Compound 469, 6-(3-(1H-pyrazol-4-yl)-1,2,4-oxadiazol-5-yl)-2,2-diethylchroman-4-one]
Active Doses in STZ Diabetic Neuropathy Model (mg/kg, po) (p < 0.05 compared to STZ + VEH treated mice) MECHANICAL [2]: <100 mg/kg | Active Doses in STZ Diabetic Neuropathy Model (mg/kg, po) (p < 0.05 compared to STZ + VEH treated mice) THERMAL [2]: <100 mg/kg | Active Doses, mg/kg sc (>50% MPE) [1]: ≥0.01 mg/kg
